Measurements as given in the NIST ThermoML archive (doi:10.1016/j.fluid.2006.08.020).
± gives the expanded uncertainty stated by the source.

Tests used:
[1] = 298.1 K; 101.33 kPa; Liquid; Vibrating tube method
[2] = osmotic coefficient (dimensionless); mn = molality of the nth substance listed, in mol/kg; conditions: 298.15 K, Liquid, isopiestic method

Which mass density [1] does the source give for `CO` [methanol] here?
Its mass density is 787.5 ± 0.16 kg/m3.

What does the source list for `CO` [methanol] + CC(=O)Nc1ccc(O)cc1?
osmotic coefficient ([2]; m1 = 0.0931): 0.998 ± 0.001; osmotic coefficient ([2]; m1 = 0.1398): 1.001 ± 0.001; osmotic coefficient ([2]; m1 = 0.2163): 1.001 ± 0.001; osmotic coefficient ([2]; m1 = 0.3514): 1 ± 0.001; osmotic coefficient ([2]; m1 = 0.5633): 1.002 ± 0.001; osmotic coefficient ([2]; m1 = 1.006): 1.009 ± 0.001; osmotic coefficient ([2]; m1 = 1.236): 1.01 ± 0.001; osmotic coefficient ([2]; m1 = 1.4): 1.015 ± 0.001; osmotic coefficient ([2]; m1 = 1.578): 1.017 ± 0.001; osmotic coefficient ([2]; m1 = 1.866): 1.02 ± 0.001; osmotic coefficient ([2]; m1 = 2.465): 1.027 ± 0.002; osmotic coefficient ([2]; m1 = 2.762): 1.033 ± 0.002; osmotic coefficient ([2]; m1 = 3.096): 1.041 ± 0.003; osmotic coefficient ([2]; m1 = 3.56): 1.055 ± 0.004; osmotic coefficient ([2]; m1 = 3.974): 1.068 ± 0.004; osmotic coefficient ([2]; m1 = 4.175): 1.075 ± 0.005; osmotic coefficient ([2]; m1 = 4.812): 1.099 ± 0.006; osmotic coefficient ([2]; m1 = 5.316): 1.12 ± 0.008; osmotic coefficient ([2]; m1 = 6.17): 1.159 ± 0.01; osmotic coefficient ([2]; m1 = 6.418): 1.171 ± 0.011; osmotic coefficient ([2]; m1 = 6.833): 1.19 ± 0.012; osmotic coefficient ([2]; m1 = 7.073): 1.21 ± 0.013
